In general, inhibition refers to the relative decrease from the control value, in per cent.

T1 sequence (P08069 959-1367 limits assumed): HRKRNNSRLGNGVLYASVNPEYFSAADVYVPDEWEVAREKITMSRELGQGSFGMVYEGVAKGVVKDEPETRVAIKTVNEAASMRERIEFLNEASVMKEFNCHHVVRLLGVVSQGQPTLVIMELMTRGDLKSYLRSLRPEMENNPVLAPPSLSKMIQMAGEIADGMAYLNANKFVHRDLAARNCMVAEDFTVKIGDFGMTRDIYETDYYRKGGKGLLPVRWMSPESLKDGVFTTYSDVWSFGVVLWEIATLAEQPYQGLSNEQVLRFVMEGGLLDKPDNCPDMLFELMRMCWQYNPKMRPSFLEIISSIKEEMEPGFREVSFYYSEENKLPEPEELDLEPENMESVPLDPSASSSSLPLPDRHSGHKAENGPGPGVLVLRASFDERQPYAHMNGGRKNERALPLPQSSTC

One assay has as its target T1, IGF-1R (Homo sapiens, UniProt P08069).
T1 construct: purchased Upstate Co. 14-465
Kind of assay: IGF-1R inhibitory activity (kinase reaction, time-resolved fluoroimmunoassay). The following applies: IGF-1R active recombinant enzyme, test compound 10 μmol/L. Type of assay: biochemical. The procedure: The IGF-1R inhibitory activity was measured in the following manner.
As IGF-1R, active recombinant enzyme (Catalog No. 14-465) purchased from Upstate Co., was used. To 96 well plate (FIA-PLATE BLACK 96 well FALT-BOTTOM HIGH BINDING, Greiner Bio-one, Catalog No. 655077) coated with NeutroAvidin (Pierce, Catalog No. 31000), biotinylated polyglutamic acid-tyrosine peptide (Nihon Schering K.K., Catalog No. 61GT0BAA) was immobilized and then blocked with 0.25% gelatin to be used as a plate for measuring the kinase reaction. Separately was prepared a solution containing at final concentrations, IGF-1R (200 μg/L), Tris.HCl(pH 7.5)(20 mmol/L), Na3VO4(0.1 mmol/L), MgCl2(1 mmol/L), MnCl2(10 mmol/L), ATP(10 mmol/L), 2-mercaptoethanol (0.04%), BSA(Bovine Serum Albumin) (0.1%), DMSO(0.1%), test compound (10 μmol/L). The solution (each 50 μL) was added to the well of the plate for measuring the kinase reaction and then, enzyme reaction was performed for 30 minutes at 24° C. The plate was washed with TBS-T [10 mmol/L Tris Cl (pH 7.5), 150 mmol/L NaCl, 0.05% Tween 20 (Bio-Rad, Catalog No. 170-6531)] 4 times, then reacted with europium-labeled anti-phosphotyrosine antibody, further washed with TBS-T 4 times and then, measured with time-resolved fluoroimmunoassay (excitation wavelength 340 nm, measuring wavelength 615 nm). The value of a well to which the test compound had not been added was considered as 100% and that of a well where the enzyme and the test compound had not been added was considered as 0%. The relative activity (%) of the well which was added with enzyme and the test compound was measured and by subtracting the calculated value from 100, IGF-1R inhibitory activity of the test compound (%) was determined.
Turning to `OCc1nc(-c2ccccc2/C=C/c2n[nH]c3ccccc23)no1` [Compound 179, (E)-3-{2-[2-(1H-indazol-3-yl)vinyl]phenyl}[1,2,4]oxadiazol-5-ylmethanol], the inhibition at 10 µM was 99.6%.

As to `CN1CCN(C(=O)c2ccc(/C=C/c3n[nH]c4ccccc34)c(N3C(=O)c4ccccc4C3=O)c2)CC1` [Compound 287], the “inhibitory activity (%) at 10 μmol/L” value turned out to be 97.1%.

Consider `C(=C\c1n[nH]c2ccccc12)/c1ccccc1-n1cccc1` [Compound 162, (E)-3-{2-[2-(pyrrol-1-yl)phenyl]vinyl}-1H-indazole], for which the inhibition at 10 µM worked out at 102%.

On to `CN(C)/C=N/c1ccccc1C=Cc1n[nH]c2ccccc12` [Compound 75, (E)-N-{2-[2-(1H-indazol-3-yl)vinyl]phenyl}-N,N-dimethylformamidine], for which the “inhibitory activity (%) at 10 μmol/L” value amounted to 90.4%.

In the case of `Cc1cc(CO)c(C)n1-c1ccccc1/C=C/c1n[nH]c2ccccc12` [Compound 191, (E)-1-{2-[2-(1H-indazol-3-yl)vinyl]phenyl}-2,5-dimethyl-1H-pyrrol-3-ylmethanol], the inhibition at 10 µM was 102%.

Take `O=C1C2=C(CCCC2)C(=O)N1c1ccccc1/C=C/c1n[nH]c2ccccc12` [Compound 203, (E)-2-{2-[2-(1H-indazol-3-yl)vinyl]phenyl}-4,5,6,7-tetrahydroisoindole-1,3-dione]: the inhibition at 10 µM was found to be 101%.

As for `O=C1C(Cl)=C(Cl)C(=O)N1c1ccccc1/C=C/c1n[nH]c2ccccc12` [Compound 207, (E)-3,4-dichloro-1-{2-[2-(1H-indazol-3-yl)vinyl]phenyl}pyrrole-2,5-dione], the inhibition at 10 µM turned out to be 98.1%.

In the case of `Nc1cccc2c1CN(c1cc(CN3CCN(CCO)CC3)ccc1/C=C/c1n[nH]c3ccccc13)C2=O` [Compound 345, (E)-4-amino-2-{5-[4-(2-hydroxyethyl)piperazin-1-ylmethyl]-2-[2-(1H-indazol-3-yl)vinyl]phenyl}-2,3-dihydroisoindole-1-one], the inhibition at 10 µM was determined as 105%.

Regarding `CS(=O)(=O)c1ccc(C(=O)Nc2ccccc2/C=C/c2n[nH]c3ccccc23)cc1` [Compound 215, (E)-N-{2-[2-(1H-indazol-3-yl)vinyl]phenyl}-4-methanesulfonylbenzamide], the inhibition at 10 µM was 81.2%.

Take `O=C1c2ccc([N+](=O)[O-])cc2C(=O)N1c1ccccc1/C=C/c1n[nH]c2ccccc12` [Compound 192, (E)-2-{2-[2-(1H-indazol-3-yl)vinyl]phenyl}-5-nitroisoindole-1,3-dione]: the inhibition at 10 µM stood at 92.3%.

For `CCOC(=O)c1cnc(Nc2ccccc2/C=C/c2n[nH]c3ccccc23)s1` [Compound 165, (E)-2-{2-[2-(1H-indazol-3-yl)vinyl]phenylamino}thiazole-5-carboxylic acid ethylester], the inhibition at 10 µM was determined as 93.8%.

Take `CC1=C(C)C(=O)N(c2ccccc2/C=C/c2n[nH]c3ccccc23)C1=O` [Compound 204, (E)-1-{2-[2-(1H-indazol-3-yl)vinyl]phenyl}-3,4-dimethylpyrrole-2,5-dione]: the inhibition at 10 µM was 99.8%.

As for `O=C1CCC(=O)N1c1ccccc1/C=C/c1n[nH]c2ccccc12` [Compound 211, (E)-1-{2-[2-(1H-indazol-3-yl)vinyl]phenyl}pyrrolidine-2,5-dione], the inhibition at 10 µM came to 86.7%.

As for `O=C(O)c1csc(Nc2ccccc2/C=C/c2n[nH]c3ccccc23)n1` [Compound 170, (E)-2-{2-[2-(1H-indazol-3-yl)vinyl]phenylamino}thiazole-4-carboxylic acid], the inhibition at 10 µM turned out to be 69.8%.

`O=C1c2ccccc2C(=O)N1c1cccc(Cl)c1/C=C/c1n[nH]c2ccccc12` [Compound 154, (E)-2-{3-chloro-2-[2-(1H-indazol-3-yl)vinyl]phenyl}isoindole-1,3-dione]: the inhibition at 10 µM worked out at 97.1%.

On to `COc1ccccc1/C=C/c1n[nH]c2ccccc12` [Compound 135, (E)-3-[2-(2-methoxyphenyl)vinyl]-1H-indazole], for which the inhibition at 10 µM was 86.6%.

`Cc1csc(NC(=O)c2ccccc2/C=C/c2n[nH]c3ccccc23)n1` [Compound 143, (E)-2-[2-(1H-indazol-3-yl)vinyl]-N-(4-methylthiazol-2-yl)benzamide]: the inhibition at 10 µM amounted to 94.9%.

For `O=C(Nc1cc(Cl)ccc1/C=C/c1n[nH]c2ccccc12)c1cccs1` [Compound 257, (E)-{5-chloro-2-[2-(1H-indazol-3-yl)vinyl]phenyl}thiophene-2-carboxamide], the “inhibitory activity (%) at 10 μmol/L” value is reported as 101.8%.

In the case of `Cc1oncc1C(=O)Nc1ccccc1/C=C/c1n[nH]c2ccccc12` [Compound 72, (E)-N-{2-[2-(1H-indazol-3-yl)vinyl]phenyl}-5-methylisoxazole-4-carboxamide], the inhibition at 10 µM was determined as 82.7%.

Take `CCOC(=O)c1csc(Nc2ccccc2/C=C/c2n[nH]c3ccccc23)n1` [Compound 169, (E)-2-{2-[2-(1H-indazol-3-yl)vinyl]phenylamino}thiazole-4-carboxylic acid ethyl ester]: the inhibition at 10 µM came to 88.4%.

As to `O=C(Nc1nc[nH]n1)c1ccccc1/C=C/c1n[nH]c2ccccc12` [Compound 139, (E)-2-[2-(1H-indazol-3-yl)vinyl]-N-(1H-[1,2,4]triazol-3-yl)benzamide], the inhibition at 10 µM worked out at 93.9%.

Consider `O=C1c2ccccc2C(=O)N1c1cc(N2CCN(CCO)CC2)ccc1/C=C/c1n[nH]c2ccccc12` [Compound 299, (E)-2-{5-[4-(2-hydroxyethyl)piperazin-1-yl]-2-[2-(1H-indazol-3-yl)vinyl]phenyl}isoindole-1,3-dione], for which the inhibition at 10 µM worked out at 92.9%.

Consider `O=C(Nc1ccccc1/C=C/c1n[nH]c2ccccc12)c1cc2ccccc2[nH]1` [Compound 50, (E)-N-{2-[2-(1H-indazol-3-yl)vinyl]phenyl}-1H-indole-2-carboxamide], for which the inhibition at 10 µM came out at 98.5%.

Turning to `C(=C\c1n[nH]c2ccccc12)/c1ccccc1Nc1ccccn1` [Compound 164, (E)-N-{2-[2-(1H-indazol-3-yl)vinyl]phenyl}-2-pyridylamine], the inhibition at 10 µM worked out at 99.1%.

For the compound `O=C1c2cc3ccccc3cc2C(=O)N1c1ccccc1/C=C/c1n[nH]c2ccccc12` [Compound 202, (E)-2-{2-[2-(1H-indazol-3-yl)vinyl]phenyl}benzo[f]isoindole-1,3-dione], the inhibition at 10 µM worked out at 85.9%.

Take `Cc1cc(C(=O)Nc2ccccc2/C=C/c2n[nH]c3ccccc23)ccc1[N+](=O)[O-]` [Compound 157, (E)-N-{2-[2-(1H-indazol-3-yl)vinyl]phenyl}-3-methyl-4-nitrobenzamide]: the inhibition at 10 µM turned out to be 96%.

`OCCCc1nc(-c2ccccc2/C=C/c2n[nH]c3ccccc23)no1` [Compound 180, (E)-3-(3-{2-[2-(1H-indazol-3-yl)vinyl]phenyl}[1,2,4]oxadiazol-5-yl)propan-1-ol]: the inhibition at 10 µM was 98.1%.

As for `O=C1c2ccsc2C(=O)N1c1ccccc1/C=C/c1n[nH]c2ccccc12` [Compound 209, (E)-5-{2-[2-(1H-indazol-3-yl)vinyl]phenyl}thieno[2,3-c]pyrrole-4,6-dione], the inhibition at 10 µM turned out to be 99.5%.

Consider `O=c1[nH]c(-c2ccccc2/C=C/c2n[nH]c3ccccc23)no1` [Compound 178, (E)-3-{2-[2-(1H-indazol-3-yl)vinyl]phenyl}-4H-[1,2,4]oxadiazole-5-one], for which the inhibition at 10 µM amounted to 71.1%.

For the compound `O=C(Nc1ccccc1/C=C/c1n[nH]c2ccccc12)c1cc2ccccc2o1` [Compound 49, (E)-N-{2-[2-(1H-indazol-3-yl)vinyl]phenyl}benzofuran-2-carboxamide], the inhibition at 10 µM stood at 103%.

For the compound `O=Cc1ccn(-c2ccccc2/C=C/c2n[nH]c3ccccc23)c1` [Compound 167, (E)-1-{2-[2-(1H-indazol-3-yl)vinyl]phenyl}-1H-pyrrole-3-carbaldehyde], the inhibition at 10 µM was 94.1%.

With `Cc1c(C(=O)Nc2ccccc2/C=C/c2n[nH]c3ccccc23)sc2ccccc12` [Compound 351, (E)-{2-[2-(1H-indazol-3-yl)vinyl]phenyl}-3-methylbenzo[b]thiophene-2-carboxamide], the “inhibitory activity (%) at 10 μmol/L” value was determined as 99.1%.

Still in this assay, the particulars now being: test compound 10 μmol/L.
Turning to `O=C(Nc1ccccc1/C=C/c1n[nH]c2ccccc12)c1ccc([N+](=O)[O-])cc1Cl` [Compound 81, (E)-2-chloro-N-{2-[2-(1H-indazol-3-yl)vinyl]phenyl}-4-nitrobenzamide], the inhibition at 10 µM stood at 60.7%.

With `Cc1ccsc1C(=O)Nc1cc(C(=O)N2CCN(C)CC2)ccc1/C=C/c1n[nH]c2ccccc12` [Compound 126, (E)-N-{2-[2-(1H-indazol-3-yl)vinyl]-5-(4-methylpiperazin-1-ylcarbonyl)phenyl}-3-methylthiophene-2-carboxamide], the inhibition at 10 µM is 98.8%.

For `Cn1cccc1C(=O)Nc1cc(C(=O)N2CCOCC2)ccc1/C=C/c1n[nH]c2ccccc12` [Compound 123, (E)-N-{2-[2-(1H-indazol-3-yl)vinyl]-5-(morpholin-4-ylcarbonyl)phenyl}-1-methylpyrrole-2-carboxamide], the inhibition at 10 µM stood at 95.9%.
